These compounds were tested against SMYD3 (Homo sapiens (Human), UniProt Q9H7B4) (assay: SMYD3 biochemical assay (SPA, 3H-SAM methylation of MEKK2 protein substrate)). Settings: read-out: SMYD3 Biochem IC50 (μM)*.
In short: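 Enzyme: untagged full-length human SMYD3 from E. coli; substrate GST-tagged MEKK2 from insect cells. Buffer 25 mM Tris-Cl pH 8.0, 1 mM TCEP, 0.005% BSG/Tween 20. 30 min compound–enzyme preincubation at RT; 3H-SAM/MEKK2 start; stop with cold SAM (100 uM final); SPA readout in cpm.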

Going from `CC(C)(C)C1CC(NC(=O)c2cc(C3CC3)on2)CCN1C(=O)CCCN` (centres unmarked) [compound 219, N-(1-(4-aminobutanoyl)-2-(tert-butyl)piperidin-4-yl)-5-cyclopropylisoxazole-3-carboxamide] to `C[C@H]1C[C@@H](NC(=O)c2cc(C3CC3)on2)CCN1C(=O)CCCCN` [compound 228, N-((2S,4S)-1-(5-aminopentanoyl)-2-methylpiperidin-4-yl)-5-cyclopropylisoxazole-3-carboxamide], the IC50 falls from 6.32 µM to 1.28 µM (4.9-fold).

First: NCCCC(=O)N1CC[C@@H](NC(=O)c2cc(C3CC3)on2)[C@H](c2ccccc2)C1 [compound 220, N-((3R,4R)-1-(4-aminobutanoyl)-3-phenylpiperidin-4-yl)-5-cyclopropylisoxazole-3-carboxamide]
Second: NCCCC(=O)N1CC[C@H](NC(=O)c2cc(C3CC3)on2)[C@H](c2ccccc2)C1 [compound 221, N-((3R,4S)-1-(4-aminobutanoyl)-3-phenylpiperidin-4-yl)-5-cyclopropylisoxazole-3-carboxamide]
The IC50 of the first is lower: 2.52 µM for the first, greater than 10 µM for the second. The first is the more potent here.

Compared with `C[C@H]1CC(NC(=O)c2cc(C3CC3)on2)CCN1C(=O)C12C3C4C1C1C2C3C41N` (stereo partly drawn) [compound 222, N-((2S)-1-(4-aminocubane-1-carbonyl)-2-methylpiperidin-4-yl)-5-cyclopropylisoxazole-3-carboxamide], `C[C@@H]1C[C@@H](NC(=O)c2cc(C3CC3)on2)CCN1C(=O)CC(O)CN` (stereo partly drawn) [compound 225, N-((2R,4S)-1-(4-amino-3-hydroxybutanoyl)-2-methylpiperidin-4-yl)-5-cyclopropylisoxazole-3-carboxamide] is 2-fold higher in IC50: 4.64 µM for the first, 9.05 µM for the second. The first is the more potent here.

Compared with `C[C@H]1CC(NC(=O)c2cc(C3CC3)on2)CCN1C(=O)CC1(O)CCNCC1` (stereo partly drawn) [compound 223, 5-cyclopropyl-N-((2S)-1-(2-(4-hydroxypiperidin-4-yl)acetyl)-2-methylpiperidin-4-yl)isoxazole-3-carboxamide], `C[C@@H]1CC(NC(=O)c2cc(C3CC3)on2)CCN1C(=O)C1(C)CCNCC1` (stereo partly drawn) [compound 224, 5-cyclopropyl-N-((2R)-2-methyl-1-(4-methylpiperidine-4-carbonyl)piperidin-4-yl)isoxazole-3-carboxamide] is 5.1-fold lower in IC50: 7.19 µM for the first, 1.42 µM for the second. The second is the more potent here.

Compared with `C[C@H]1CC(NC(=O)c2cc(C3CC3)on2)CCN1C(=O)CC1CCCC(N)C1` (stereo partly drawn) [compound 226, N-((2S)-1-(2-(3-aminocyclohexyl)acetyl)-2-methylpiperidin-4-yl)-5-cyclopropylisoxazole-3-carboxamide], `C[C@H]1C[C@H](NC(=O)c2cc(C3CC3)on2)CCN1S(=O)(=O)C1CC1` [compound 247, 5-cyclopropyl-N-((2S,4R)-1-(cyclopropylsulfonyl)-2-methylpiperidin-4-yl)isoxazole-3-carboxamide] is higher in IC50: 2.38 µM for the first, greater than 10 µM for the second. The first is the more potent here.

First: CCCS(=O)(=O)N1CC[C@H](NC(=O)c2cc(C3CC3)on2)C[C@@H]1C [compound 229, 5-cyclopropyl-N-((2S,4S)-2-methyl-1-(propylsulfonyl)piperidin-4-yl)isoxazole-3-carboxamide]
Second: CCCS(=O)(=O)N1CC[C@H](NC(=O)c2cc(C3CC3)on2)C[C@H]1C [compound 238, 5-cyclopropyl-N-((2R,4S)-2-methyl-1-(propylsulfonyl)piperidin-4-yl)isoxazole-3-carboxamide]
The IC50 of the first is lower: 0.863 µM for the first, greater than 10 µM for the second. The first is the more potent here.

First: CC(C)CS(=O)(=O)N1CC[C@H](NC(=O)c2cc(C3CC3)on2)C[C@@H]1C [compound 230, 5-cyclopropyl-N-((2S,4S)-1-(isobutylsulfonyl)-2-methylpiperidin-4-yl)isoxazole-3-carboxamide]
Second: CC(C)CS(=O)(=O)N1CC[C@H](NC(=O)c2cc(C3CC3)on2)C[C@H]1C [compound 239, 5-cyclopropyl-N-((2R,4S)-1-(isobutylsulfonyl)-2-methylpiperidin-4-yl)isoxazole-3-carboxamide]
The IC50 of the first is lower: 0.472 µM for the first, greater than 10 µM for the second. The first is the more potent here.

Compared with `CCOC(=O)CS(=O)(=O)N1CC[C@H](NC(=O)c2cc(C3CC3)on2)C[C@@H]1C` [compound 231, ethyl 2-(((2S,4S)-4-(5-cyclopropylisoxazole-3-carboxamido)-2-methylpiperidin-1-yl)sulfonyl)acetate], `CCOC(=O)CS(=O)(=O)N1CC[C@@H](NC(=O)c2cc(C3CC3)on2)C[C@@H]1C` [compound 245, ethyl 2-(((2S,4R)-4-(5-cyclopropylisoxazole-3-carboxamido)-2-methylpiperidin-1-yl)sulfonyl)acetate] is higher in IC50: 1.17 µM for the first, greater than 10 µM for the second. The first is the more potent here.

First: C[C@H]1C[C@@H](NC(=O)c2cc(C3CC3)on2)CCN1S(=O)(=O)CC(F)(F)F [compound 232, 5-cyclopropyl-N-((2S,4S)-2-methyl-1-((2,2,2-trifluoroethyl)sulfonyl)piperidin-4-yl)isoxazole-3-carboxamide]
Second: C[C@H]1C[C@H](NC(=O)c2cc(C3CC3)on2)CCN1S(=O)(=O)CC(F)(F)F [compound 246, 5-cyclopropyl-N-((2S,4R)-2-methyl-1-((2,2,2-trifluoroethyl)sulfonyl)piperidin-4-yl)isoxazole-3-carboxamide]
The IC50 of the first is lower: 3.26 µM for the first, greater than 10 µM for the second.

`COCCS(=O)(=O)N1CC[C@H](NC(=O)c2cc(C3CC3)on2)C[C@@H]1C` [compound 233, 5-cyclopropyl-N-((2S,4S)-1-((2-methoxyethyl)sulfonyl)-2-methylpiperidin-4-yl)isoxazole-3-carboxamide] and `CC(C)OCCS(=O)(=O)N1CC[C@H](NC(=O)c2cc(C3CC3)on2)C[C@@H]1C` [compound 237, 5-cyclopropyl-N-((2S,4S)-1-((2-isopropoxyethyl)sulfonyl)-2-methylpiperidin-4-yl)isoxazole-3-carboxamide] are within 1.5-fold of each other in IC50: 2.36 µM for the first, 3.46 µM for the second.

First: C[C@H]1C[C@@H](NC(=O)c2cc(C3CC3)on2)CCN1S(=O)(=O)c1cn(C)cn1 [compound 234, 5-cyclopropyl-N-((2S,4S)-2-methyl-1-((1-methyl-1H-imidazol-4-yl)sulfonyl)piperidin-4-yl)isoxazole-3-carboxamide]
Second: C[C@@H]1C[C@@H](NC(=O)c2cc(C3CC3)on2)CCN1S(=O)(=O)c1ccc(Cl)nc1 [compound 241, N-((2R,4S)-1-((6-chloropyridin-3-yl)sulfonyl)-2-methylpiperidin-4-yl)-5-cyclopropylisoxazole-3-carboxamide]
The IC50 of the first is lower: 1.24 µM for the first, greater than 10 µM for the second.

First: C[C@H]1C[C@@H](NC(=O)c2cc(C3CC3)on2)CCN1S(=O)(=O)CCC(F)(F)F [compound 236, 5-cyclopropyl-N-((2S,4S)-2-methyl-1-((3,3,3-trifluoropropyl)sulfonyl)piperidin-4-yl)isoxazole-3-carboxamide]
Second: CCCCS(=O)(=O)N1CC[C@H](NC(=O)c2cc(C3CC3)on2)C[C@H]1C [compound 240, N-((2R,4S)-1-(butylsulfonyl)-2-methylpiperidin-4-yl)-5-cyclopropylisoxazole-3-carboxamide]
The IC50 of the first is lower: 1.04 µM for the first, greater than 10 µM for the second.

Compared with `C[C@@H]1C[C@@H](NC(=O)c2cc(C3CC3)on2)CCN1S(=O)(=O)N1CCCC1` [compound 242, 5-cyclopropyl-N-((2R,4S)-2-methyl-1-(pyrrolidin-1-ylsulfonyl)piperidin-4-yl)isoxazole-3-carboxamide], `C[C@@H]1C[C@@H](NC(=O)c2cc(C3CC3)on2)CCN1S(=O)(=O)N1CCN(C)CC1` [compound 243, 5-cyclopropyl-N-((2R,4S)-2-methyl-1-((4-methylpiperazin-1-yl)sulfonyl)piperidin-4-yl)isoxazole-3-carboxamide] is lower in IC50: greater than 10 µM for the first, 1.76 µM for the second.

From patent US10577363B2, “Substituted piperidine compounds” (EPIZYME, INC., priority 2014, dated 2020)
